Consider 6 molecules from US10947252B2, “Inhibitors of KEAP1-Nrf2 protein-protein interaction” (Janssen Pharmaceutica NV, priority 2018, dated 2021).

For assay [1], the target named is Kelch domain of human KEAP1 (321-624 aa) (Homo sapiens (Human), UniProt Q14145). Description: KEAP1 KELCH ThermoFluor binding assay.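 Note: Ligand-induced melting temperature shift of E. coli-expressed KEAP1 Kelch protein, Kd estimated from concentration-response curves of ΔTm.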 The following applies: KEAP Kelch […], 1,8-ANS, pH 7.0, average of results obtained, read-out: Tf Kd. (Differential scanning fluorimetry follows unfolding on heating by fluorescence.)
Kelch domain of human KEAP1 (321-624 aa), sequence (Q14145 321-624): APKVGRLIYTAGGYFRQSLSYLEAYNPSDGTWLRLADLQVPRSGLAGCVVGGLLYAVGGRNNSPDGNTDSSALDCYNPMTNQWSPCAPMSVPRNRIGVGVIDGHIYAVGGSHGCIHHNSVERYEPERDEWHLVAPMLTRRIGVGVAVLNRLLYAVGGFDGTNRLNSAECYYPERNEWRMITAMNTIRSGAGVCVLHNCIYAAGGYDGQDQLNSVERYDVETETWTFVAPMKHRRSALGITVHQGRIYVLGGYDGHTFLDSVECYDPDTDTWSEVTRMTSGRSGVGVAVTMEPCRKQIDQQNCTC
In assay [2] the test system is Glo-Response ARE-luc2P HEK293 cell line. As to the kind of experiment: ARE luciferase reporter cell-based assay.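 Note: luciferase signal tracks Nrf2 activation of the ARE once compounds disrupt KEAP1-Nrf2 binding, read with One-Glo reagent, DMSO serving as low control.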 To be noted: average of results obtained. A general note: In a reporter assay the amount or activity of a reporter protein is the signal.

Structures can show the parent of a compound that is named as a salt.

As a reminder, the Kd is the equilibrium constant for the complex coming apart. Usually EC50 stands for the concentration at which the effect is half-maximal. Low readings indicate higher potency in that assay, high ones lower potency in that assay. In the case of `Cc1ccc(C(CC(=O)O)c2ccn3c(C(F)(F)F)nnc3c2C)cc1CN1C[C@H]2CCCCN2c2ncccc2S1(=O)=O` (stereo in doubt) [Example 271, 3-(3-(((*R)-5,5-Dioxido-7,7a,8,9,10,11-hexahydro-6H-dipyrido[2,1-d:2′,3′-f][1,2,5]thiadiazepin-6-yl)methyl)-4-methylphenyl)-3-(8-methyl-3-(trifluoromethyl)-[1,2,4]triazolo[4,3-a]pyridin-7-yl)propanoic Acid], the Kd in assay [1] was < 1 nM. The molecule further came in with an EC50 in assay [2] (Homo sapiens, HEK293, 24 h) of 22.9 nM.

Take `Cc1ccc([C@H](CC(=O)O)c2ccn3c(C(F)(F)F)nnc3c2C)cc1CN1C[C@@H]2CN(C)CCN2c2ncccc2S1(=O)=O` (single isomer, unassigned) [Example 178, (*S)-3-(4-Methyl-3-(((S)-9-methyl-5,5-dioxido-7,7a,8,9,10,11-hexahydro-6H-pyrazino[2,1-d]pyrido[2,3-f][1,2,5]thiadiazepin-6-yl)methyl)phenyl)-3-(8-methyl-3-(trifluoromethyl)-[1,2,4]triazolo[4,3-a]pyridin-7-yl)propanoic Acid]: in assay [1], the Kd is 30 nM. In assay [2] (Homo sapiens, HEK293, 24 h), the EC50 was 440 nM.

Regarding `Cc1ccc([C@@H](CC(=O)O)c2ccc3c(nnn3CC3CC3)c2C(F)F)cc1CN1C[C@H]2CCCCN2c2ncccc2S1(=O)=O` (single isomer, unassigned) [Example 171, (*R)-3-(1-(Cyclopropylmethyl)-4-(difluoromethyl)-1H-benzo[d][1,2,3]triazol-5-yl)-3-(3-(((*R)-5,5-dioxido-7,7a,8,9,10,11-hexahydro-6H-dipyrido[2,1-d:2′,3′-f][1,2,5]thiadiazepin-6-yl)methyl)-4-methylphenyl)propanoic Acid], the Kd in assay [1] is < 1 nM. The same molecule registered an EC50 in assay [2] (24 hours) of 88 nM.

As to `Cc1ccc([C@H](c2ccn3c(C(F)(F)F)nnc3c2C)C(C)(C)C(=O)O)cc1CN1CC2(CCOCC2)Oc2nc(OCCC3CCNCC3)c(C)cc2S1(=O)=O` (single isomer, unassigned) [Example 369, (*R)-2,2-Dimethyl-3-(4-methyl-3-(8′-methyl-1′,1′-dioxido-7′-(2-(piperidin-4-yl)ethoxy)-2,3,5,6-tetrahydrospiro[pyran-4,4′-pyrido[2,3-b][1,4,5]oxathiazepin]-2′(3′H)-yl)methyl)-4-methylphenyl)-2,2-dimethyl-3-(8-methyl-3-(trifluoromethyl)-[1,2,4]triazolo[4,3-a][pyridine-7-yl)propanoic Acid], the Kd in assay [1] was < 1 nM. In addition, in assay [2] (Homo sapiens, HEK293, 24 h), the EC50 is 176 nM.

On to `CCn1nnc2c(C)c(C(CC(=O)O)c3ccc(C)c(CN4C[C@H]5CCCN5c5ncccc5S4(=O)=O)c3)ccc21` (stereo partly drawn) [Example 20, 3-(3-(((R)-5,5-Dioxido-7a,8,9,10-tetrahydropyrido[2,3-f]pyrrolo[2,1-d][1,2,5]thiadiazepin-6(7H)-yl)methyl)-4-methylphenyl)-3-(1-ethyl-4-methyl-1H-benzo[d][1,2,3]triazol-5-yl)propanoic Acid and its Trifluoroacetic Acid Salt], for which the Kd in assay [1] stood at 0.081 nM. Also, a half-maximal response in assay [2] (Homo sapiens, HEK293, 24 h) (EC50) required 6.3 nM.

Turning to `CCn1nnc2c(C)c([C@H](c3cc(CN4CC5(CC5)Oc5ncc(C)cc5S4(=O)=O)c(C)cn3)C(C)(C)C(=O)O)ccc21` (single isomer, unassigned) [Example 594, (*S)-3-(1-Ethyl-4-methyl-1H-benzo[d][1,2,3]triazol-5-yl)-2,2-dimethyl-3-(5-methyl-4-((8′-methyl-1′,1′-dioxidospiro[cyclopropane-1,4′-pyrido[2,3-b][1,4,5]oxathiazepin]-2′(3′H)-yl)methyl)pyridin-2-yl)propanoic Acid], the Kd in assay [1] is < 1 nM. In assay [2] (Homo sapiens, HEK293, 24 h), this molecule gave a 50% effective concentration (EC50) of 3.3 nM.
